Experimental data taken from ChEMBL document CHEMBL2163241, “Human neutrophil elastase phosphonic inhibitors with improved potency of action” (J Med Chem, 2012).

Tests used:
[1] = Inhibition of trypsin at 25 uM assessed as Kinact/Ki ratio incubated for 15 mins by spectrofluorometry
[2] = Inhibition of chymotrypsin at 25 uM assessed as Kinact/Ki ratio incubated for 15 mins by spectrofluorometry
[3] = biological target: Pancreatic elastase (Sus scrofa) (UniProt P08419+P00772); assay: Inhibition of porcine pancreatic elastase at 25 uM assessed as Kinact/Ki ratio incubated for 15 mins by spectrofluorometry; type: protein assay
[4] = biological target: T1, Neutrophil elastase (Homo sapiens) (UniProt P08246); assay: Inhibition of human leukocyte elastase at 25 uM assessed as Kinact/Ki ratio incubated for 15 mins by spectrofluorometry
T1 sequence (whole entry): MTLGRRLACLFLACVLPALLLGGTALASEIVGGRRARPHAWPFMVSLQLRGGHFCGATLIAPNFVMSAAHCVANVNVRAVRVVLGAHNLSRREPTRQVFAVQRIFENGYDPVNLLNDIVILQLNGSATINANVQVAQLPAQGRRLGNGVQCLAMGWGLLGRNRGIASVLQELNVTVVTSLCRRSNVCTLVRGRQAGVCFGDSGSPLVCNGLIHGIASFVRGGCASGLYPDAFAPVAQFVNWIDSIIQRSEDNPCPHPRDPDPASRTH

Structure (SMILES)	Ratio [1]	Ratio [2]	Ratio [3]	Ratio [4]	inhibition [1]
CCC(NC(=O)[C@@H]1CCCN1C(=O)[C@@H](NC(=O)OC(C)(C)C)C(C)C)P(=O)(Oc1ccc(OC)cc1)Oc1ccc(OC)cc1 (mixture of isomers)	< 50 M⁻¹ s⁻¹	< 50 M⁻¹ s⁻¹	9900 M⁻¹ s⁻¹	11000 M⁻¹ s⁻¹	
CSc1ccc(OP(=O)(Oc2ccc(SC)cc2)[C@H](NC(=O)[C@@H]2CCCN2C(=O)[C@@H](NC(=O)Cn2cc(C)c(=O)n(CC(=O)O)c2=O)C(C)C)C(C)C)cc1		< 50 M⁻¹ s⁻¹	300 M⁻¹ s⁻¹	4100 M⁻¹ s⁻¹	< 5%
CC(C)[C@H](NC(=O)OC(C)(C)C)C(=O)N1CCC[C@H]1C(=O)NC(C)P(=O)(Oc1ccc(C(C)(C)C)cc1)Oc1ccc(C(C)(C)C)cc1 (mixture of isomers)		< 50 M⁻¹ s⁻¹	< 50 M⁻¹ s⁻¹	< 50 M⁻¹ s⁻¹	< 5%
COc1ccc(C(=O)N[C@H](C(=O)N2CCC[C@H]2C(=O)N[C@H](C(C)C)P(=O)(Oc2ccc(SC)cc2)Oc2ccc(SC)cc2)C(C)C)cc1		< 50 M⁻¹ s⁻¹	< 50 M⁻¹ s⁻¹	4800 M⁻¹ s⁻¹	< 5%
CSc1ccc(OP(=O)(Oc2ccc(SC)cc2)C(NC(=O)[C@@H]2CCCN2C(=O)[C@H](C)NC(=O)OCc2ccccc2)C(C)C)cc1 (mixture of isomers)	< 50 M⁻¹ s⁻¹	1500 M⁻¹ s⁻¹	12000 M⁻¹ s⁻¹	144000 M⁻¹ s⁻¹	
CSc1ccc(OP(=O)(Oc2ccc(SC)cc2)[C@@H](NC(=O)[C@@H]2CCCN2C(=O)[C@@H](NC(=O)OC(C)(C)C)C(C)C)C(C)C)cc1	< 50 M⁻¹ s⁻¹	850 M⁻¹ s⁻¹	22300 M⁻¹ s⁻¹	431000 M⁻¹ s⁻¹	
CSc1ccc(OP(=O)(Oc2ccc(SC)cc2)[C@@H](NC(=O)[C@@H]2CCCN2C(=O)[C@@H](NC(=O)Cn2cc(C)c(=O)n(CC(=O)O)c2=O)C(C)C)C(C)C)cc1	280 M⁻¹ s⁻¹	44700 M⁻¹ s⁻¹	243000 M⁻¹ s⁻¹	1.76e+06 M⁻¹ s⁻¹	
COc1ccc(OP(=O)(Oc2ccc(OC)cc2)C(CC(C)C)NC(=O)[C@@H]2CCCN2C(=O)[C@@H](NC(=O)OC(C)(C)C)C(C)C)cc1 (mixture of isomers)	< 50 M⁻¹ s⁻¹	1700 M⁻¹ s⁻¹	960 M⁻¹ s⁻¹	270 M⁻¹ s⁻¹	
COc1ccc(C(=O)N[C@H](C(=O)N2CCC[C@H]2C(=O)N[C@@H](C(C)C)P(=O)(Oc2ccc(SC)cc2)Oc2ccc(SC)cc2)C(C)C)cc1	< 50 M⁻¹ s⁻¹	100 M⁻¹ s⁻¹	6700 M⁻¹ s⁻¹	540000 M⁻¹ s⁻¹	
CC(C)C(NC(=O)[C@@H]1CCCN1C(=O)[C@@H](NC(=O)OC(C)(C)C)C(C)C)P(=O)(Oc1ccc(Cl)cc1)Oc1ccc(Cl)cc1 (mixture of isomers)	< 50 M⁻¹ s⁻¹	250 M⁻¹ s⁻¹	5000 M⁻¹ s⁻¹	92100 M⁻¹ s⁻¹	
CCC(NC(=O)[C@@H]1CCCN1C(=O)[C@@H](NC(=O)OC(C)(C)C)C(C)C)P(=O)(Oc1ccc(C(C)C)cc1)Oc1ccc(C(C)C)cc1 (mixture of isomers)	< 50 M⁻¹ s⁻¹	< 50 M⁻¹ s⁻¹	580 M⁻¹ s⁻¹	< 50 M⁻¹ s⁻¹	
CSCC[C@H](NC(=O)OCc1ccccc1)C(=O)N1CCC[C@H]1C(=O)NC(C(C)C)P(=O)(Oc1ccc(SC)cc1)Oc1ccc(SC)cc1 (mixture of isomers)	< 50 M⁻¹ s⁻¹	3700 M⁻¹ s⁻¹	6300 M⁻¹ s⁻¹	223000 M⁻¹ s⁻¹	
CSc1ccc(OP(=O)(Oc2ccc(SC)cc2)C(NC(=O)[C@@H]2CCCN2C(=O)[C@@H](NC(=O)OCc2ccccc2)C(C)C)C(C)C)cc1 (mixture of isomers)	< 50 M⁻¹ s⁻¹	4400 M⁻¹ s⁻¹	6200 M⁻¹ s⁻¹	231000 M⁻¹ s⁻¹	
